The text below walks through data of patent US20050282870A1, “Peripherally-acting vasodilators” (priority 2004, published 2005).

The structures appear in SMILES notation.

In the assay the test system is forearm and dorsum of the foot skin. Kind of assay: Skin vasodilatory response to topical application of 1% methyl nicotinate, Laser Doppler Perfusion Imaging. Conditions: for maximal vasodilatory response: compared with acetylcholine and sodium nitroprusside. In kind it is in vivo, human. Here is the method: Vasodilation induced by topical application of methyl nicotinate was evaluated and compared with the vasodilatory response to acetylcholine and sodium nitroprusside in healthy subjects and diabetic neuropathic patients. Ten diabetic patients with peripheral neuropathy and 10 age- and sex-matched healthy control subjects were enrolled. The vasodilatory response to topical application of 1% methyl nicotinate and a placebo emulsion at the forearm and dorsum of the foot skin at 4, 15, 30, 60 and 120 min was measured using Laser Doppler Perfusion Imaging. The vasodilatory response to iontophoresis of 1% acetylcholine and 1% sodium nitroprusside solutions was also evaluated.

For `COC(=O)c1cccnc1` [methyl nicotinate], the vasodilatory response entry (control group (healthy subjects), foot, topical 1%, compared to acetylcholine and sodium nitroprusside responses) is given as “higher”. The maximal vasodilatory response result (control group (healthy subjects), forearm, topical 1%) was “similar”. For the same compound, where the note is “diabetic patients with peripheral neuropathy, forearm and foot, topical 1%”, the maximal vasodilatory response result is on record as “similar”. Also, under “topical 1% methyl nicotinate”, the “time after application at which vasodilation was present” value stood at 5 min, the “time of decline of vasodilation to pre-application levels” value stood at 120 min and the “time of peak vasodilation” value fell in the range of 15 to 30 min.
